Results on 6 compounds are retold here after patent US11034702B2, “Thienoisoquinolines and their derivatives for the treatment of cancer” (VALORBEC, SOCIÉTÉ EN COMMANDITE, priority 2016, dated 2021).

The structures appear in SMILES notation.

The test system of assay [1] is MCF-10A (mammary gland fibrocystic disease) non-cancer cells. Nature of the assay: IC50 (viability) in MCF-10A non-cancer cells. In kind it is cell-based. Particulars: Homo sapiens, MCF10A non-cancer cells. The method, then:
(§1) 19 variants with different structural modifications have been made. […] In particular, it is shown that C75 causes death in multiple cancer cells with IC50 values in the 100 nM range, including breast cancers (MCF7, BT549), lung cancer (A549), colorectal cancer (HCT116) in addition to HeLa cells (cervical cancer).

The test system of assay [2] is HeLa (cervical adenocarcinoma) cells. Put plainly: IC50 (viability) in HeLa cells. In kind it is cell-based, human. Particulars: for IC50: Homo sapiens, HeLa cells, cells printed in nM; for efficacy (effect on viability) in cancer cells vs. non-cancer cells: comparison of Table 3 IC50 values. As to the method:
as §1

For assay [3], the system named is A549 (lung carcinoma) cells. Put plainly: IC50 (viability) in A549 cells. In kind it is cell-based. Particulars: Homo sapiens. The method, then:
as §1

Assay [4] relates to BT549 (breast ductal carcinoma) cells. Nature of the assay: IC50 (viability) in BT549 cells. In kind it is cell-based. Particulars: Homo sapiens, BT-549. As to the method:
as §1

Assay [5] relates to MCF-7 (mammary gland carcinoma) cells. Put plainly: IC50 (viability) in MCF-7 cells. Particulars: Homo sapiens, MCF7. In kind it is cell-based. As to the method: as §1
Assay [6] deals with HFF1 (fibroblast) non-cancer cells. Put plainly: IC50 (viability) in HFF1 non-cancer cells. In kind it is cell-based. Particulars: Homo sapiens; HFF-1 non-cancer cells. As to the method:
as §1

The test system of the next assay is HeLa cells. Put plainly: Mitotic spindle / centrosome phenotype in HeLa cells (tubulin and DAPI staining, live imaging). In kind it is cell-based, human. As to the method: There were more rounded mitotic cells after C75 treatment in comparison to the control. FIG. 1B) is a line graph showing the percentage of HeLa and HFF1 cells in mitosis after treatment with various concentrations of C75 for 8 hours. The bars indicate standard deviation. FIG. 1C) is a series of images showing cells that were fixed and co-stained for tubulin (microtubules) and DAPI (DNA). Treatment of HeLa cells with 300 nM C75 caused the mitotic spindles to be disorganized, while they were not affected in HFF1 cells. […] The scale bar for the cells is 10 μm. FIG. 1D) is a cartoon schematic showing the key features of a metaphase cell.
(§2) FIG. 2A) is a line graph showing the percentage of HCT116 (p53−/−) cells, A549 cells, HeLa cells and H1299 cells in mitosis after treatment with various concentrations of C75 for one population doubling time. All of the cell lines show an increase in the proportion of mitotic cells after treatment with 200 nM C75. The bars indicate standard deviation. […] While the mitotic spindles were not dramatically altered by C75 in HFF1 cells, they were monopolar (as shown) or fragmented in the other cell types. […] The mitotic spindles were more strongly fragmented after C75 treatment in these cells vs. the cells in FIG. 2B). […] While mitotic spindles recovered bipolarity after removing nocodazole, they remained multipolar after removing C75. FIG. 2F) is a series of time-lapse images of a live HeLa cell expressing GFP:tubulin after treatment with C75 as shown in 2D) and 2E). The scale bar for all cells is 10 μm. FIG. 2G) is a schematic showing the putative target for C75. Healthy cells have two centrosomes that separate and form a bipolar spindle, while cancer cells have aberrant centrosomes that cluster to form ‘pseudo’ bipolar spindles, and C75 may target this process and their integrity.
FIG. 3A) is a line graph showing the percentage of mitotic HeLa or HFF1 cells treated with a range of paclitaxel (Taxol™; tubulin-targeting drug) concentrations+/−C75 as indicated. The bars indicate standard deviation. FIG. 3B) is a series of bar graphs showing the proportion of HCT116 cells that have monopolar spindles, bipolar spindles with aligned chromosomes, bipolar spindles with misaligned chromosomes and multipolar/fragmented spindles after treatments as shown. Treatments include DMSO (control), varying concentrations of paclitaxel and/or varying concentrations of C75 after 7 hours. While treatment of HCT116 cells with 2.5 nM paclitaxel caused a threshold of mitotic spindle phenotypes, adding increasing concentrations of C75 in combination with 2.5 nM paclitaxel caused the phenotypes to progressively worsen. FIG. 3C) is bar graph showing the average distance between centrosome fragments in HCT116 cells after treatments as shown. While centrosome fragments moved closer together with increased concentrations of paclitaxel, they moved further apart with increased concentrations of C75. […] FIG. 3E) is a line graph showing the percentage of mitotic HeLa or HFF1 cells treated with a range of nocodazole concentrations+/−C75 as indicated. The bars indicate standard deviation. FIG. 3F) is a series of images showing fixed HeLa cells after treatment with C75+/− nocodazole co-stained for tubulin, γ-tubulin and DNA (DAPI). […] Adding nocodazole to cells treated with 300 nM C75 caused mitotic spindle phenotypes to worsen and appear more similar to those after treatment with 600 nM C75. The scale bar for all cells is 10 μm. FIG. 3G) is a bar graph showing the percentage of phenotypes observed for metaphase HeLa cells treated with nocodazole or C75, or both for 20 minutes (n>15 per treatment).
Spindle fragmentation only occurred after extensive microtubule depolymerization in colchicine-treated cells, while the spindle poles fragmented prior to changes in microtubules after C75 treatment. The scale bar for all cells is 10 μm.
C75 was further tested and found to cause mitotic arrest in HeLa cells. […]

A further assay relates to HCT116 cells. Nature of the assay: Mitotic spindle phenotype and centrosome fragment distance in HCT116 cells. In kind it is cell-based. Particulars: HCT116, paclitaxel alone. The method, then:
as §2
FIG. 3A) is a line graph showing the percentage of mitotic HeLa or HFF1 cells treated with a range of paclitaxel (Taxol™; tubulin-targeting drug) concentrations+/−C75 as indicated. The bars indicate standard deviation. FIG. 3B) is a series of bar graphs showing the proportion of HCT116 cells that have monopolar spindles, bipolar spindles with aligned chromosomes, bipolar spindles with misaligned chromosomes and multipolar/fragmented spindles after treatments as shown. Treatments include DMSO (control), varying concentrations of paclitaxel and/or varying concentrations of C75 after 7 hours. While treatment of HCT116 cells with 2.5 nM paclitaxel caused a threshold of mitotic spindle phenotypes, adding increasing concentrations of C75 in combination with 2.5 nM paclitaxel caused the phenotypes to progressively worsen. FIG. 3C) is bar graph showing the average distance between centrosome fragments in HCT116 cells after treatments as shown. While centrosome fragments moved closer together with increased concentrations of paclitaxel, they moved further apart with increased concentrations of C75. […] FIG. 3E) is a line graph showing the percentage of mitotic HeLa or HFF1 cells treated with a range of nocodazole concentrations+/−C75 as indicated. The bars indicate standard deviation. […]
C75 was also tested for efficacy in different cancer cell lines. […] To further assess the role of C75 in affecting centrosomes, HeLa cells were treated with C75 for a short period of time (5 minutes), then C75 was removed and the cells were analyzed for spindle phenotypes (schematic in FIG. 2D). […]

A word on the IC50: it is the concentration needed to halve the response being measured. A high value points to weaker potency. Turning to `O=S(=O)(c1cccs1)N1Cc2ccccc2-c2sccc21` [Compound C87], the IC50 in assay [1] amounted to 0.539 µM; in assay [2], 845 nM; in assay [3], 0.75 µM; in assay [4] it was 4.2 µM; in assay [5] it was 2.46 µM.

Turning to `Cc1ccc(S(=O)(=O)N2Cc3ccccc3-c3sccc32)cc1` [Compound C91], the IC50 in assay [6] was found to be 0.92 µM; in assay [2] it was 197 nM; in assay [5], 1.02 µM. Further, in assay [2], the “efficacy (effect on viability) in cancer cells vs. non-cancer cells” value is listed as “higher efficacy”.

On to `COc1ccc(S(=O)(=O)N2Cc3ccccc3-c3sc(I)cc32)cc1` [Compound C207], for which, in assay [2], the “efficacy (effect on viability) in cancer cells vs. non-cancer cells” value is reported as “higher efficacy”.

Turning to `COc1cc2c(c(OC)c1OC)-c1ccc(OC)c(=O)cc1[C@@H](NC(C)=O)CC2` [colchicine, reference compound], the “spindle phenotype at lower concentrations” value in the assay on HeLa cells (HeLa, 8 hours, 30 nM colchicine or 300 nM C75) was “bipolar spindles with less robust microtubules”. Besides, the “spindle phenotype at higher concentrations” value in the assay on HeLa cells (HeLa, 8 hours, 40 or 50 nM colchicine, 400 or 500 nM C75) was “fragmented spindles, but only after extensive loss of microtubules”.

With `COC(=O)Nc1nc2ccc(C(=O)c3cccs3)cc2[nH]1` [nocodazole, reference compound], the “spindle phenotype after drug wash-out” value in the assay with HeLa cells (metaphase HeLa, 5 minutes treatment, washed out, imaged after 40 minutes) was “bipolar spindles reformed”. Also, in the assay on HeLa cells (metaphase HeLa, nocodazole or C75 or both, 20 minutes), the “spindle phenotype, drugs alone vs. together” value was “bipolar spindles with weak microtubules”.

Take `CC(=O)O[C@H]1C(=O)[C@@]2(C)[C@H]([C@H](OC(=O)c3ccccc3)[C@]3(O)C[C@H](OC(=O)[C@H](O)[C@@H](NC(=O)c4ccccc4)c4ccccc4)C(C)=C1C3(C)C)[C@]1(OC(C)=O)CO[C@@H]1C[C@@H]2O` [paclitaxel, reference compound]: in the assay with HCT116 cells, the “change of centrosome fragment distance with increased paclitaxel concentration” value is recorded as “significant decrease in fragment distance”.
